Assay results reported in patent publication US20060057614A1 (priority 2004, published 2006).

Experiments:
α3β2 nAChR = α3β2 nAChR (Homo sapiens, UniProt P17787+P32297); conditions: cited from earlier work
α4β2 nAChR = α4β2 nAChR (Homo sapiens, UniProt P17787+P43681); conditions: cited from earlier work
α1β1γδ nAChR = α1β1γδ nAChR (Homo sapiens, UniProt P02708+P07510+Q07001); conditions: cited from earlier work
α7nAChR = α7nAChR (Homo sapiens, UniProt P36544); conditions: cited from earlier work
Sequence of α7nAChR (P36544 23-502 limits assumed): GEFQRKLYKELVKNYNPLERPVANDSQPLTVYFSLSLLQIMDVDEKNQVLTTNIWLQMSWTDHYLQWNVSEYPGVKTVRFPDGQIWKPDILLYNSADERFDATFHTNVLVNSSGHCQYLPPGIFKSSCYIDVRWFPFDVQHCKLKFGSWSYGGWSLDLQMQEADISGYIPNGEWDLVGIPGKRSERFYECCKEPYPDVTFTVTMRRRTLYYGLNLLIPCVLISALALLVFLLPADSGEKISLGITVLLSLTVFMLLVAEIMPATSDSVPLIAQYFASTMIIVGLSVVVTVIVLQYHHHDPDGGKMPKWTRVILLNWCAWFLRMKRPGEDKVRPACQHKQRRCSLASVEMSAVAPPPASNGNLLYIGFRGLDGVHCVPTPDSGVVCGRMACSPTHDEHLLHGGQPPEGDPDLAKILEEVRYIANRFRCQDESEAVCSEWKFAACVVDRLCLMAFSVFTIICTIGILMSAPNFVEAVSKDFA

[1] = target: muscle α1β1γδ nicotinic acetylcholine receptor (expressed in Xenopus oocytes); assay: cell-based or functional assay
[2] = target: T1, zebrafish acetylcholinesterase (synaptic, in muscle) (zebrafish, UniProt Q9DDE3 24-634)
T1 construct: whole, on cells; also called synaptic acetylcholinesterase

Sequence of α1β1γδ nAChR (P11230 24-501): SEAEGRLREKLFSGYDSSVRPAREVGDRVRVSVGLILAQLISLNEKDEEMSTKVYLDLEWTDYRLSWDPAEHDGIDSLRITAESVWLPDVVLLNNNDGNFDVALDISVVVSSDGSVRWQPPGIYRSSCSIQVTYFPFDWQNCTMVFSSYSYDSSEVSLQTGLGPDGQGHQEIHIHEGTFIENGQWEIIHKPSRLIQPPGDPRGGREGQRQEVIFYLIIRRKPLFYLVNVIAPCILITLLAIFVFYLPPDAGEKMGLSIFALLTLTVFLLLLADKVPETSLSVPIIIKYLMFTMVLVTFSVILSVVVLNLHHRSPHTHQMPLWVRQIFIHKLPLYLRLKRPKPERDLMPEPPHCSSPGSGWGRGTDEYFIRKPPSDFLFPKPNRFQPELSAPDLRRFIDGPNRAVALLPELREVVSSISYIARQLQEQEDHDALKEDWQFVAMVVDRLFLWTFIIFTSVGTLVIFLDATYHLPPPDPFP
Sequence of α1β1γδ nAChR (P02708 21-457): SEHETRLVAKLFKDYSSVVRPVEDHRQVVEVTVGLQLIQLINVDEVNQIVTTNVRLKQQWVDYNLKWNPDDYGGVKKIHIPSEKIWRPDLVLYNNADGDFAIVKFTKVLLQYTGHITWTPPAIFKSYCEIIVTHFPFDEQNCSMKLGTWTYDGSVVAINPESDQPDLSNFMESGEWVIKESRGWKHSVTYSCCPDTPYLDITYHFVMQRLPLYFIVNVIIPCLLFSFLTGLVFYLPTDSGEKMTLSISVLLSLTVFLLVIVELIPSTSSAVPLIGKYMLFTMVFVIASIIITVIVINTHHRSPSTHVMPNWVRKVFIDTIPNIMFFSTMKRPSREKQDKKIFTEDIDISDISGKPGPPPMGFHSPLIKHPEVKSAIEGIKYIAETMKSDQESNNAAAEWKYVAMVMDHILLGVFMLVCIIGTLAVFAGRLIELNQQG
Sequence of α1β1γδ nAChR (Q07001 22-517): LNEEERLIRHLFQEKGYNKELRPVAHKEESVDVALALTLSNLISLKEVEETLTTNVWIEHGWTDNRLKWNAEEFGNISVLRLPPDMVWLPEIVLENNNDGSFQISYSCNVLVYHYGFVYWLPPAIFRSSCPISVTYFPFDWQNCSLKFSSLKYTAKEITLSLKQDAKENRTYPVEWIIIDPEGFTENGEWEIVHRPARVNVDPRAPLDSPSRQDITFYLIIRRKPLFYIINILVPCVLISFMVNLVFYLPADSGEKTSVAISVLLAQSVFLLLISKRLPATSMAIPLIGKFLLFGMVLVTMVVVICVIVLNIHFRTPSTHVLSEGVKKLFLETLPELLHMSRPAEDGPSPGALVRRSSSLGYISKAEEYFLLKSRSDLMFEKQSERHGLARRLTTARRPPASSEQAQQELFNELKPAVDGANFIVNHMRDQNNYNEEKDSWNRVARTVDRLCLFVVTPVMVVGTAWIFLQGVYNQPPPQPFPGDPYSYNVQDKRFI
Sequence of α1β1γδ nAChR (P07510 23-517): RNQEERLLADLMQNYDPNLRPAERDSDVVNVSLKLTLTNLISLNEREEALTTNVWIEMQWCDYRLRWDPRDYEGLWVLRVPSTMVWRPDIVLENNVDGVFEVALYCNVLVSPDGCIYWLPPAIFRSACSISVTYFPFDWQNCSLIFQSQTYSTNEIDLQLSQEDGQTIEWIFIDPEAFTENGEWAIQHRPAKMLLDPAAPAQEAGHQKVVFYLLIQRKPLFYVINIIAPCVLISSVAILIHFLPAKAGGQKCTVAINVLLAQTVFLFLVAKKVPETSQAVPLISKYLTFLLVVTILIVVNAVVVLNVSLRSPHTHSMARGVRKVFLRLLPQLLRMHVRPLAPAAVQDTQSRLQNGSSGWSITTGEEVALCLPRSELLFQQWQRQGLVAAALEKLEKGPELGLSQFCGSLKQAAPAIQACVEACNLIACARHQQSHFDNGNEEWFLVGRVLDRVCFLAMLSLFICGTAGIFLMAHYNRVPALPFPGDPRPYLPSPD
Sequence of α4β2 nAChR (P43681 29-627): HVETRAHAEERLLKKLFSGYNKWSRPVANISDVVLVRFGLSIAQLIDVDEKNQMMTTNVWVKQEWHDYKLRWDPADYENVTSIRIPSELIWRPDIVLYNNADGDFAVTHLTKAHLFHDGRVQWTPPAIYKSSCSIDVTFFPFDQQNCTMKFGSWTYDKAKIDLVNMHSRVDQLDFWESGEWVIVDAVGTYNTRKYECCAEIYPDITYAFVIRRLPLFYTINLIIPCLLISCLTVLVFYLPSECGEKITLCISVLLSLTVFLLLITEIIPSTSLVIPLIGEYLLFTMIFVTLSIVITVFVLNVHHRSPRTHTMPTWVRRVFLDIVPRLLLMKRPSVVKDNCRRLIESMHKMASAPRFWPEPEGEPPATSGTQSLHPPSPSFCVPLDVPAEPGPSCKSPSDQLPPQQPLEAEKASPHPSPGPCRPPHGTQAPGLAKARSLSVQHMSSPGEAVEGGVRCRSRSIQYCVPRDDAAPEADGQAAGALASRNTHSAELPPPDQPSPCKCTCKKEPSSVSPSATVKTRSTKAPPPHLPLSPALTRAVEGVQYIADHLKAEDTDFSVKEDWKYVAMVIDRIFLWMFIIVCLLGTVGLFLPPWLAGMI
Sequence of α4β2 nAChR (P17787 26-502): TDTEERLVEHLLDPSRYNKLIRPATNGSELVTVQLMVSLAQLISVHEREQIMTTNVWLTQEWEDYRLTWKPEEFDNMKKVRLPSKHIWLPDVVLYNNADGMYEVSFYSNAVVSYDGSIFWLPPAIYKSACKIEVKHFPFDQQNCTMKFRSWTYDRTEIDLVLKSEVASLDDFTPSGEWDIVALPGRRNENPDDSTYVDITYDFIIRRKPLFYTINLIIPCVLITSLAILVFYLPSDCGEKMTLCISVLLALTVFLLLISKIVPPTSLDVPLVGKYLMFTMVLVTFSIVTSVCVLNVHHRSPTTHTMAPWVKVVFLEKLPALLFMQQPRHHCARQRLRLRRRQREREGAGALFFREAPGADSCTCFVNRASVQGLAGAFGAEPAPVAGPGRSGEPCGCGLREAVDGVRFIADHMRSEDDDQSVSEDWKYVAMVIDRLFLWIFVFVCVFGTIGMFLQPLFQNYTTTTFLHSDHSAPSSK
Sequence of α3β2 nAChR (P32297 32-505 limits assumed): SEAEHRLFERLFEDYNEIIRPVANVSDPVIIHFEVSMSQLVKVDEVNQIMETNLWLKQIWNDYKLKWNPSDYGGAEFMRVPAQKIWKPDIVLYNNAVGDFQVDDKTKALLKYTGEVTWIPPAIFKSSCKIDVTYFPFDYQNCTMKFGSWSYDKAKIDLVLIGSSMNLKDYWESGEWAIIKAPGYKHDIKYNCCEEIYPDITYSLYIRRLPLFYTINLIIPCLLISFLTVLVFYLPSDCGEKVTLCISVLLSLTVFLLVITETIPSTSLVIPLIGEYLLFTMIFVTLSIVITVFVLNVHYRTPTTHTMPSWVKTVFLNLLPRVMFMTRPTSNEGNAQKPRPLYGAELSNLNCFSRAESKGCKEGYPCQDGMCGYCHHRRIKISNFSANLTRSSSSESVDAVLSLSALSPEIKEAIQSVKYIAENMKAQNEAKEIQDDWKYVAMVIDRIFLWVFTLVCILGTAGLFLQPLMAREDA
Sequence of α3β2 nAChR (P17787 26-502 limits assumed): as the sequence (P17787 26-502) above

α-conotoxin MII
Affinity (α3β2 nAChR): 0.5 nM

κ-bungartotoxin
Affinity (α4β2 nAChR): >0.1 µM | Affinity (α1β1γδ nAChR): 1 µM | Affinity (α7nAChR): 1 to 12 nM

α-bungarotoxin
Affinity (α4β2 nAChR): 100 µM | Affinity (α1β1γδ nAChR): 0.0004 µM | Affinity (α7nAChR): 0.95 nM

tethered α-bungarotoxin
average peak ACh current, Xenopus oocytes (receptor alone: 8.46 +/-3.7 µA) [1]: 0 µA

B1: Alexa 647 conjugated Fasciculin 2 (ligand)
chain: TMCYSHTTTSRAILTNCGENSCYRKSRRHPPKMVLGRGCGCPPGDDNLEVKCCTSPDKCNY
notes: Bought reagent; also called FasII
binding result [2]: binds
